# Measurements from ChEMBL document CHEMBL1142838, “Design and synthesis of phthalimide-type histone deacetylase inhibitors” (Bioorg Med Chem Lett, 2005).
# Target: Histone deacetylase
# Experiment: Effective concentration for inhibition of histone deacetylase
# Type: protein assay, Homo sapiens
row,EC50 [µM],SMILES
1,125,O=C(NO)c1ccc2c(c1)C(=O)N(c1ccccc1)C2=O
2,0.186,COc1ccc(CN2C(=O)c3ccc(/C=C/C(=O)NO)cc3C2=O)cc1
3,0.474,Cc1ccc(CN2C(=O)c3ccc(/C=C/C(=O)NO)cc3C2=O)cc1
4,0.25,C[C@@H](c1ccccc1)N1C(=O)c2ccc(/C=C/C(=O)NO)cc2C1=O
5,7.89,O=C(/C=C/c1ccc2c(c1)C(=O)N(CC(c1ccccc1)c1ccccc1)C2=O)NO
6,2.09,O=C(/C=C/c1ccc2c(c1)C(=O)N(C(c1ccccc1)c1ccccc1)C2=O)NO
7,0.407,O=C(CCc1ccc2c(c1)C(=O)N(Cc1ccccc1)C2=O)NO
8,0.291,C[C@H](c1ccccc1)N1C(=O)c2ccc(/C=C/C(=O)NO)cc2C1=O
9,4.16,O=C(NO)c1ccc2c(c1)C(=O)N(Cc1ccccc1)C2=O
10,6.63,O=C(NO)c1ccc2c(c1)C(=O)N(CCc1ccccc1)C2=O
11,2.08,O=C(/C=C/c1ccc2c(c1)C(=O)N(c1ccccc1)C2=O)NO

row,SMILES,EC50 [µM]
1,O=C(/C=C/c1ccc2c(c1)C(=O)N(Cc1ccccc1)C2=O)NO,0.148
2,O=C(/C=C/c1ccc2c(c1)C(=O)N([C@@H](COC(=O)c1ccccc1)c1ccccc1)C2=O)NO,3.79
3,O=C(/C=C/c1ccc2c(c1)C(=O)N([C@H](COC(=O)c1ccccc1)c1ccccc1)C2=O)NO,0.763
4,O=C(/C=C/c1ccc2c(c1)C(=O)N(CCc1ccccc1)C2=O)NO,0.177

# Target: Histone deacetylase 1 (Homo sapiens, UniProt Q13547)
# Sequence (Q13547 whole entry): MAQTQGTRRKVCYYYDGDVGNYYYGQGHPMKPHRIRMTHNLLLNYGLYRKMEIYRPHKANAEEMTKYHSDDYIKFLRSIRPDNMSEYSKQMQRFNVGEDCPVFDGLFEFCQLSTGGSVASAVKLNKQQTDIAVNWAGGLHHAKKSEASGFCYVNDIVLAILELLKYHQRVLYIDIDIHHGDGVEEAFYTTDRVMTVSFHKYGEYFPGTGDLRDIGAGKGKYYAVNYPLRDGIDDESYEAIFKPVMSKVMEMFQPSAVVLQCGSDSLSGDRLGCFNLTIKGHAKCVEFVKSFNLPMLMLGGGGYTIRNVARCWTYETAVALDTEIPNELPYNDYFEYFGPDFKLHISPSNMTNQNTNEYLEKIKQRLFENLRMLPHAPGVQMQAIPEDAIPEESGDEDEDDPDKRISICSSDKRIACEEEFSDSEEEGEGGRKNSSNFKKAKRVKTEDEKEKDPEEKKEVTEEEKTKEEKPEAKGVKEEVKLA
row,SMILES,IC50 [µM]
1,O=C(/C=C/c1ccc2c(c1)C(=O)N(Cc1ccccc1)C2=O)NO,0.572

# Target: Histone deacetylase 4 (Homo sapiens, UniProt P56524)
# Sequence (P56524 whole entry): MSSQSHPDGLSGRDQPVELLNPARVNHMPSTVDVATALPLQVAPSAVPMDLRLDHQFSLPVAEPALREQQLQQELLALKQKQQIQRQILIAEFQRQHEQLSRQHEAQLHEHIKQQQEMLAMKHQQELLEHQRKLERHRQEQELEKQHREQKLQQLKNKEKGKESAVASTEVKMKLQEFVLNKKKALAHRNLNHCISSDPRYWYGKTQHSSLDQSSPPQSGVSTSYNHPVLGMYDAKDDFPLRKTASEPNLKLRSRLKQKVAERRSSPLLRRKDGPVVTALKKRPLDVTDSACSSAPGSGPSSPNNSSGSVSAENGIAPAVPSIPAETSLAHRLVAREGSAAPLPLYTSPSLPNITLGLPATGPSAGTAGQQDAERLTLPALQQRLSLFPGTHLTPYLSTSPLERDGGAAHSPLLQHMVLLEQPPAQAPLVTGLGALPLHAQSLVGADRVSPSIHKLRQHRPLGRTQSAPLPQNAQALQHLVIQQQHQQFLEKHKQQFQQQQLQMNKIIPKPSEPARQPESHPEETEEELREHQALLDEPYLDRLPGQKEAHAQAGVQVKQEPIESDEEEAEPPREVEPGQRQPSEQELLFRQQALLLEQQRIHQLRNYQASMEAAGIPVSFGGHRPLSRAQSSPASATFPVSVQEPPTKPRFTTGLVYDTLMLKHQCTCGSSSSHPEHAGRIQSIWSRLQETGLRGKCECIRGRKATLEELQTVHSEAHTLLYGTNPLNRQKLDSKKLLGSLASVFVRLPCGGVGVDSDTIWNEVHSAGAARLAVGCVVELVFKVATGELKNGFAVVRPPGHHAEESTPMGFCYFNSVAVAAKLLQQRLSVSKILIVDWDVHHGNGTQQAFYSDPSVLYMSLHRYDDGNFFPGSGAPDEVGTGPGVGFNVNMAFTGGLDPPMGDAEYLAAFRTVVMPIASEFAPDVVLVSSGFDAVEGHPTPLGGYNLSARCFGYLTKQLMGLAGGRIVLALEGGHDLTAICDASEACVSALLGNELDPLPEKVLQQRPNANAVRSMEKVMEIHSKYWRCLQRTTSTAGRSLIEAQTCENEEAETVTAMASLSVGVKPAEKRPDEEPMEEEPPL
row,SMILES,IC50 [µM]
1,O=C(/C=C/c1ccc2c(c1)C(=O)N(Cc1ccccc1)C2=O)NO,0.358

# Target: T1, Protein deacetylase HDAC6 (Homo sapiens, UniProt Q9UBN7)
# T1 sequence (Q9UBN7 whole entry): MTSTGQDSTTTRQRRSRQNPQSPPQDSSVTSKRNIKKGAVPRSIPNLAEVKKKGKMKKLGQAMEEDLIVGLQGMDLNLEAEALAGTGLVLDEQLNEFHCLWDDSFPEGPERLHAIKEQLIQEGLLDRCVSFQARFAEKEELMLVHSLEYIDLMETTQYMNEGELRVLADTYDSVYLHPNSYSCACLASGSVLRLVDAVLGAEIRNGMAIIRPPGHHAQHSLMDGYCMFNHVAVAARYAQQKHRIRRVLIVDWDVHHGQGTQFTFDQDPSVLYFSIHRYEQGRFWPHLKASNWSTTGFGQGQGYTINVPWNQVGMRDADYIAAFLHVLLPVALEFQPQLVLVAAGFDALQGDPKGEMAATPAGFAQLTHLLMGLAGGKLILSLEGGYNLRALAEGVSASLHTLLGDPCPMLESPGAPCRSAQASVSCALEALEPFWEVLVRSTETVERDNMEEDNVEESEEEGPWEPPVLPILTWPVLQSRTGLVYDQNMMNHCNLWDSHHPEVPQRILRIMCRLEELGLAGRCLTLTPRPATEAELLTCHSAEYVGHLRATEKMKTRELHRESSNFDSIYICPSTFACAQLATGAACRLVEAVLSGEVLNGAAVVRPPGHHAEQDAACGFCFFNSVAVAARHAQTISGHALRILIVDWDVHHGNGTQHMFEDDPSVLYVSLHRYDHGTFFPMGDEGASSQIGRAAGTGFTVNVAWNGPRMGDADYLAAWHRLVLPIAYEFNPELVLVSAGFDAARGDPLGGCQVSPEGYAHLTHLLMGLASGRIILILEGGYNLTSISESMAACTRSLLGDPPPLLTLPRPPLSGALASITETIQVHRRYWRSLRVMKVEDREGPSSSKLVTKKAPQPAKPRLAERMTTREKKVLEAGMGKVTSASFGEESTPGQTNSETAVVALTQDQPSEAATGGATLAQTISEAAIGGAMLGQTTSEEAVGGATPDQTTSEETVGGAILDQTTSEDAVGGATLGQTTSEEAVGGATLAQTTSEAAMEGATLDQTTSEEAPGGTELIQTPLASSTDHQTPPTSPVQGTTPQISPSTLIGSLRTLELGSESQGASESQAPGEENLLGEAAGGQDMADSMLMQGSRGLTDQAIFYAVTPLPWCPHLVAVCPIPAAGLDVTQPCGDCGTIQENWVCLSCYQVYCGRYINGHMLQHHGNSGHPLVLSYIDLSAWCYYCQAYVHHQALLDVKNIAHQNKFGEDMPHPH
row,SMILES,IC50 [µM]
1,O=C(/C=C/c1ccc2c(c1)C(=O)N(Cc1ccccc1)C2=O)NO,0.709
